From patent US8952024B2, “Herbicidal pyrimidone derivatives” (E I du Pont de Nemours and Company, priority 2009, dated 2015)
Where two headings read alike, the source gives them in different places.

Key:
Assay type in all cases: in vivo
[1] = test system: windgrass (Apera spica-venti); test: Test B postemergence plant response
How it was run: (§1)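 Plants at the 1- to 4-leaf stage (2 to 18 cm tall), grown in pots of peat moss/vermiculite medium with wetting agent and starter nutrients, received postemergence applications of test chemicals. After 13 to 15 days in a greenhouse, injury was rated visually against untreated controls on a 0 (no effect) to 100 (complete control) scale.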

[2] = test system: canarygrass (Phalaris minor); test: Test B postemergence plant response
How it was run: as §1

[3] = test system: winter barley (Hordeum vulgare); test: Test B postemergence plant response
How it was run: as §1

[4] = test system: chickweed (Stellaria media); test: Test B postemergence plant response
How it was run: as §1

[5] = test system: sunflower (common oilseed sunflower, Helianthus annuus); test: Test B pre-/postemergence plant response; conditions: Preemergence
How it was run: (§2)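 Visual ratings on a 0–100 scale (100 = complete control) were made versus untreated controls 13–15 days after treatment in a greenhouse. Compounds in surfactant-containing non-phytotoxic solvent were applied preemergence to seeds in loam–sand blend or postemergence to 1- to 4-leaf plants (2–18 cm).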

[6] = test system: nightshade (eastern black nightshade, Solanum ptycanthum); test: Test B pre-/postemergence plant response; conditions: Preemergence
How it was run: as §2

[7] = test system: Italian ryegrass (Lolium multiflorum); test: Test B pre-/postemergence plant response; conditions: for pest or weed control at 31 g/ha: 31 g ai/ha; for pest or weed control at 125 g/ha: 125 g ai/ha
How it was run: as §2

[8] = test system: ragweed (common ragweed, Ambrosia elatior); test: Test B pre-/postemergence plant response
How it was run: as §2

[9] = 62 g ai/ha, postemergence, 0 is no effect, 100 is complete control, 13 to 15 days
[10] = 31 g ai/ha, scale 0 to 100 (0 no effect, 100 complete control)
[11] = 62 g ai/ha, scale 0 to 100, 0 no effect, 100 complete control
[12] = 125 g ai/ha, scale 0 to 100, 0 no effect, 100 complete control

`COCCCn1c(-c2ccccc2)ncc(C(=O)C2=C(O)CCCC2=O)c1=O` [Compound 81, 5-[(2-hydroxy-6-oxo-cyclohexen-1-yl)carbonyl]-3-(3-methoxypropyl)-2-phenyl-4(3H)-pyrimidinone] was tested, and the “Windgrass plant response rating (0 to 100 scale)” value [1, 9] was 50, the pest or weed control at 31 g/ha ([1]; Apera spica-venti, post-emergence, 360 h, 31 g ai/ha, postemergence, scale 0 to 100, 0 is no effect, 100 is complete control, read-out: Plant response rating, Windgrass) was 10% and the pest or weed control at 125 g/ha ([1]; Apera spica-venti, post-emergence, 360 h, Postemergence, 125 g ai/ha, visual rating after 13 to 15 days, scale 0 (no effect) to 100 (complete control)) was 60%. The pest or weed control at 250 g/ha ([1]; Apera spica-venti, post-emergence, 360 h, Postemergence, 250 g ai/ha, scale 0 to 100 (0 no effect, 100 complete control), read-out: Plant response rating, Windgrass) was 70%, the “Canarygrass plant response rating (0 to 100 scale)” value [2, 9] was 5 and the pest or weed control at 31 g/ha ([2]; Phalaris minor, post-emergence, 360 h, 31 g ai/ha, postemergence, scale 0 to 100, 0 is no effect, 100 is complete control, read-out: Plant response rating, Canarygrass) was 0%. The pest or weed control at 125 g/ha ([2]; Phalaris minor, post-emergence, 360 h, Postemergence, 125 g ai/ha, visual rating after 13 to 15 days, scale 0 (no effect) to 100 (complete control)) was 10%, the pest or weed control at 250 g/ha ([2]; Phalaris minor, post-emergence, 360 h, Postemergence, 250 g ai/ha, scale 0 to 100 (0 no effect, 100 complete control), read-out: Plant response rating, Canarygrass) was 20% and the “Barley plant response rating (0 to 100 scale)” value [3, 9] was 0. The plant injury at 31 g/ha ([3]; Hordeum vulgare, post-emergence, 31 g ai/ha, postemergence, scale 0 to 100, 0 is no effect, 100 is complete control, read-out: Plant response rating, Barley) was 0%, the plant injury at 125 g/ha ([3]; Hordeum vulgare, post-emergence, Postemergence, 125 g ai/ha, visual rating after 13 to 15 days, scale 0 (no effect) to 100 (complete control)) was 0% and the plant injury at 250 g/ha ([3]; Hordeum vulgare, post-emergence, Postemergence, 250 g ai/ha, scale 0 to 100 (0 no effect, 100 complete control), read-out: Plant response rating, Barley) was 5%. The “Chickweed plant response rating (0 to 100 scale)” value [4, 9] was 98, the pest or weed control at 31 g/ha ([4]; Stellaria media, post-emergence, 360 h, 31 g ai/ha, postemergence, scale 0 to 100, 0 is no effect, 100 is complete control, read-out: Plant response rating, Chickweed) was 95% and the pest or weed control at 125 g/ha ([4]; Stellaria media, post-emergence, 360 h, Postemergence, 125 g ai/ha, visual rating after 13 to 15 days, scale 0 (no effect) to 100 (complete control)) was 98%. The pest or weed control at 250 g/ha ([4]; Stellaria media, post-emergence, 360 h, Postemergence, 250 g ai/ha, scale 0 to 100 (0 no effect, 100 complete control), read-out: Plant response rating, Chickweed) was 100%, the “Plant response rating, Sunflower” value [5, 10] was 60 and the “Plant response rating, Sunflower” value [5, 11] was 75. The “Plant response rating, Sunflower” value [5, 12] was 85, the “Sunflower plant response rating” value ([5]; 250 g ai/ha, 0 to 100 scale) was 90 and the “Plant response rating, Nightshade” value [6, 10] was 98. For the same compound, the “Plant response rating, Nightshade” value [6, 11] was 98, the “Plant response rating, Nightshade” value [6, 12] was 98 and the “Nightshade plant response rating” value ([6]; 250 g ai/ha, 0 to 100 scale) was 100. The “Ryegrass, Italian plant response rating (0 to 100 scale)” value [7, 9] was 5, the pest or weed control at 31 g/ha ([7]; Lolium multiflorum, post-emergence, postemergence, scale 0 to 100, 0 is no effect, 100 is complete control, read-out: Plant response rating, Ryegrass, Italian) was 0% and the pest or weed control at 125 g/ha ([7]; Lolium multiflorum, post-emergence, Postemergence, visual rating after 13 to 15 days, scale 0 (no effect) to 100 (complete control)) was 45%. For the same compound, the pest or weed control at 250 g/ha ([7]; Lolium multiflorum, post-emergence, Postemergence, 250 g ai/ha, scale 0 to 100 (0 no effect, 100 complete control), read-out: Plant response rating, Ryegrass, Italian) was 55%, the pest or weed control at 31 g/ha ([7]; Lolium multiflorum, pre-emergence, Preemergence, scale 0 to 100 (0 no effect, 100 complete control), read-out: Plant response rating, Ryegrass, Italian) was 0% and the pest or weed control at 62 g/ha ([7]; Lolium multiflorum, pre-emergence, Preemergence, 62 g ai/ha, scale 0 to 100 (0 no effect, 100 complete control), read-out: Plant response rating, Ryegrass, Italian) was 0%. The pest or weed control at 125 g/ha ([7]; Lolium multiflorum, pre-emergence, Preemergence, scale 0 to 100, 0 no effect, 100 complete control, read-out: Plant response rating, Ryegrass, Italian) was 0%, the “Ryegrass, Italian plant response rating” value ([7]; Preemergence, 250 g ai/ha, 0 to 100 scale) was 0 and the “Ragweed plant response rating (0 to 100 scale)” value [8, 9] was 80. It also gave a pest or weed control at 31 g/ha ([8]; Ambrosia artemisiifolia, post-emergence, 360 h, 31 g ai/ha, postemergence, scale 0 to 100, 0 is no effect, 100 is complete control, read-out: Plant response rating, Ragweed) of 75%, a pest or weed control at 125 g/ha ([8]; Ambrosia artemisiifolia, post-emergence, 360 h, Postemergence, 125 g ai/ha, visual rating after 13 to 15 days, scale 0 (no effect) to 100 (complete control)) of 98% and a pest or weed control at 250 g/ha ([8]; Ambrosia artemisiifolia, post-emergence, 360 h, Postemergence, 250 g ai/ha, scale 0 to 100 (0 no effect, 100 complete control), read-out: Plant response rating, Ragweed) of 100%.
